Data on 80 compounds can be found in the METLIN SMRT retention time set (Domingo-Almenara et al. 2019).

This series in a line: gradient 5% acetonitrile 3 min, to 50% in 2 min, to 85% in 15 min, held 3 min, 100 µL/min. To be noted: column: Zorbax Extend-C18 2.1 x 50 mm; eluents: water / acetonitrile, 0.1% formic acid. The procedure, abridged:
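Mixtures of ~100 pure standards were chromatographed on a Zorbax Extend-C18 column (2.1 × 50 mm, 1.8 μm) at 100 μL/min using water and acetonitrile, each with 0.1% formic acid. Detection used a quadrupole time-of-flight mass spectrometer in positive and negative ionization mode, and data collection spanned 3 months. Retention time was obtained from adduct peaks picked computationally and each checked manually.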
In turn, `O=S(=O)(NCc1cccnc1)c1ccc(Cl)cc1` showed an RP-LC retention time of 566 s.

On to `O=C(c1cccn1Cc1noc(C2CC2)n1)N1CCN(c2ccccc2)CC1`, for which the RP-LC retention time amounted to 946 s.

In the case of `CCNS(=O)(=O)c1ccc(Cl)c(-c2nnc(-c3ccccc3)o2)c1`, the RP-LC retention time came to 919 s.

`CC(C)c1ccc(C(O)Cn2ccn3nc(-c4ccc(F)cc4)cc3c2=O)cc1` (stereo not given): the RP-LC retention time is 1110 s.

In turn, `O=C(NC1(c2nc(-c3cccnc3)no2)CCCCC1)c1ccc(F)c(Cl)c1` returned an RP-LC retention time of 1030 s.

The compound `CCc1ccc(S(=O)(=O)NCc2c(-c3ccccc3)nc3sc(C)nn23)cc1` registered an RP-LC retention time of 943 s.

The compound `CSc1cccc(NC(=O)Cn2c(=O)n(-c3ccccc3)c(=O)c3c2cc(C)n3C)c1` registered an RP-LC retention time of 861 s.

For the compound `O=C(N[C@H]1C[C@@H]2C[C@H]1N(C(=O)COc1cccc(Cl)c1)C2)c1ccccc1`, the RP-LC retention time is 829 s.

Take `O=c1ccc(-c2ccccc2)nn1Cc1nc(-c2ccccc2Cl)no1`: the RP-LC retention time amounted to 976 s.

Compound `COc1ccc(OC)c(S(=O)(=O)N2CCCC(C(=O)NCc3ccccc3)C2)c1` (stereo not given) yielded an RP-LC retention time of 841 s.

`O=C(NCCCc1ccccc1)C1(CCO)CCN(c2ncccn2)C1` (stereo not given) returned an RP-LC retention time of 651 s.

`Cc1cc(C(=O)N2CCCC2)c2cc(Br)ccc2n1`: the RP-LC retention time stood at 677 s.

For the compound `COc1ccc(NC(=O)C2CC(=O)N(CCc3c[nH]c4ccc(OC)cc34)C2)cc1` (stereo not given), the RP-LC retention time worked out at 728 s.

Take `Cc1nnc(CNC(=O)c2cccc(-n3cnnn3)c2)o1`: the RP-LC retention time worked out at 567 s.

As for `CCOC(=O)c1ccc(NC(=O)NC2CC(=O)N(C3CCCC3)C2)cc1` (stereo not given), the RP-LC retention time is 768 s.

In turn, `CC(C(=O)NCCCN1CCOCC1)n1c2ccccc2c2cnn(C)c(=O)c21` (stereo not given) gave an RP-LC retention time of 599 s.

The compound `c1cc(-c2noc(-c3ccc4c(c3)OCO4)n2)cc(N2CCCC2)n1` displayed an RP-LC retention time of 690 s.

`Cc1cccc(-n2c(=O)c3c(cc(C)n3C)n(CC(=O)Nc3ccc(C)cc3Cl)c2=O)c1` displayed an RP-LC retention time of 942 s.

In turn, `O=C1NC2(CCN(C(=O)c3ccc4c(c3)OCO4)CC2)N=C1c1cccc(Cl)c1` showed an RP-LC retention time of 835 s.

The compound `CC(=O)Nc1ccc(S(=O)(=O)NCC2(c3cccs3)CCOCC2)c(C)c1` yielded an RP-LC retention time of 696 s.

With `O=C(NCC(c1ccccc1)c1c[nH]c2ccccc12)NC1CCCCC1` (stereo not given), the RP-LC retention time came to 976 s.

On to `CC(C)n1c(=O)oc2cc(-c3noc(-c4ccc(F)cc4)n3)ccc21`, for which the RP-LC retention time is 1170 s.

In turn, `CCn1c(C2CCCN(C(=O)NCC(C)C)C2)nn(C)c1=O` (stereo not given) gave an RP-LC retention time of 628 s.

Compound `CCN1CCCn2cc(S(=O)(=O)N(C)c3ccc(C)cc3)cc2C1=O` gave an RP-LC retention time of 756 s.

As for `CCCN(CCC)C(=O)C1CCN(C(=O)c2ccccc2Cl)CC1`, the RP-LC retention time came to 602 s.

With `Cc1cc(F)ccc1NC(=O)c1cnc2c(c1)c(=O)n(C)c(=O)n2-c1ccccc1`, the RP-LC retention time amounted to 854 s.

As for `Cc1cc(C)nc(Nc2nc(CC(=O)N3CCN(C4CCCCC4)CC3)cs2)n1`, the RP-LC retention time was determined as 558 s.

As to `CC1=NS(=O)(=O)N(C)C=C1C(=O)OCc1nc(Cc2ccccc2C)no1`, the RP-LC retention time amounted to 987 s.

Take `COc1ccc(Br)cc1CNC(=O)c1ccc2c(c1)NC(=O)C1CCCCN21` (stereo not given): the RP-LC retention time turned out to be 884 s.

The compound `Cc1cc(S(=O)(=O)N2CCCC(Cn3cnc4cccnc43)C2)ccc1F` (stereo not given) showed an RP-LC retention time of 787 s.

In turn, `Cc1nnc(NC(=O)Cc2csc(Nc3ccc(OC(F)(F)F)cc3)n2)s1` yielded an RP-LC retention time of 790 s.

In the case of `COc1ccc(-n2cc(C(=O)OCC3CCCO3)c3ccccc3c2=O)cc1` (stereo not given), the RP-LC retention time was found to be 993 s.

`CN1CCN(c2ccc(-c3nc(-c4ccccc4)no3)cn2)CC1` had an RP-LC retention time of 664 s.

In turn, `Cc1ccc(C(=O)NCCc2c[nH]c3ccc(Cl)cc23)cc1-n1nnc2cccnc21` came in with an RP-LC retention time of 903 s.

Consider `CCCn1c(=O)c(N2CCN(C(=O)CC(C)C)CC2)nc2ccccc21`, for which the RP-LC retention time came to 1010 s.

`Cn1ccc2c(cc(C(=O)NCc3cccc(C(F)(F)F)c3)n2C)c1=O` came in with an RP-LC retention time of 771 s.

For the compound `COC(=O)C1CCN(c2ccnc3c2c(=O)n(C)c(=O)n3C)CC1`, the RP-LC retention time is 660 s.

`Cc1ccc(Cc2nc(-c3ccc4c(c3)nnn4CCN3CCOCC3)no2)cc1` gave an RP-LC retention time of 703 s.

In the case of `O=C(NCc1ccccn1)c1nnc(-c2ccc(S(=O)(=O)N3CCCCC3)cc2)o1`, the RP-LC retention time was found to be 732 s.

For the compound `CC(C)CNC(=O)CCc1nc2ccccc2n(CC(=O)NCc2ccccc2)c1=O`, the RP-LC retention time is 769 s.

In turn, `O=C(Nc1ccc2c(c1)OCO2)c1cn(-c2cc(N3CCCC3)ncn2)cn1` gave an RP-LC retention time of 808 s.

The compound `CCC(=O)Nc1ccc(-n2cnc(C(=O)N3CCN(c4ccccc4)CC3)c2)nc1` came in with an RP-LC retention time of 708 s.

Compound `COc1cccc(CN2CCC(N3CC4(CCCCC4)C3c3ccccc3)CC2)c1OC` (stereo not given) came in with an RP-LC retention time of 624 s.

Take `Cc1cccc(CNS(=O)(=O)c2ccc3c(c2)CCCC(=O)N3)c1`: the RP-LC retention time turned out to be 754 s.

As to `O=C(Cn1nc2n(c1=O)CCCC2)NCCc1ccc(Cl)cc1`, the RP-LC retention time stood at 678 s.

For the compound `CCCCNC(=O)c1cccc2c1CCN2C(=O)C1CC1`, the RP-LC retention time worked out at 764 s.

`N#CC1(C(=O)NCCOc2ccc(F)cc2)CC1` returned an RP-LC retention time of 728 s.

On to `CC(NC(=O)c1ccc2ncnc(N3CCCCC3)c2c1)c1cccnc1` (stereo not given), for which the RP-LC retention time came out at 545 s.

Compound `Cc1[nH]c(C(=O)N2CCC(CC(=O)NCCCN3CCCCC3)CC2)c(C)c1C` gave an RP-LC retention time of 606 s.

Take `Cc1nc(C)c(C(=O)Nc2nc(-c3ccc(OC(C)C)cc3)cs2)s1`: the RP-LC retention time was determined as 1020 s.

Take `O=c1c2cc(-c3cccs3)nn2cnn1Cc1nc(-c2ccc3c(c2)OCO3)no1`: the RP-LC retention time was 1020 s.

In turn, `O=C(NCc1cc(F)ccc1F)C1CCN(C(=O)c2ncn3c2COC(c2ccc(F)cc2)C3)CC1` (stereo not given) returned an RP-LC retention time of 802 s.

Regarding `CC(C(=O)NN1CCOCC1)n1nc(-c2ccco2)ccc1=O` (stereo not given), the RP-LC retention time turned out to be 584 s.

Consider `CC(=O)N1CCC(C(=O)Nc2cccc(OCc3nnc(-c4ccc(Cl)cc4)o3)c2)CC1`, for which the RP-LC retention time was found to be 762 s.

Consider `CCCCn1cc(S(=O)(=O)Nc2cccc(CC)c2)c2cccnc21`, for which the RP-LC retention time was determined as 1070 s.

`CCCn1c(=O)c(C)nc2cc(-c3noc(-c4ccc(C#N)cc4)n3)ccc21` returned an RP-LC retention time of 1080 s.

Take `CCOC(=O)C1CCN(c2cc3c(cc2NC(=O)C(C)(C)C)n(C)c(=O)c(=O)n3C)CC1`: the RP-LC retention time came to 844 s.

In turn, `O=C(c1ccc(Cl)nc1)N1CCCC1c1nc(-c2cccc(C(F)(F)F)c2)no1` (stereo not given) yielded an RP-LC retention time of 1070 s.

As to `O=C(CCc1ccc2cc[nH]c2c1)NCc1cc(F)cc(F)c1`, the RP-LC retention time came out at 848 s.

On to `CCOC(=O)c1cccc(NC(=O)C2CCCN(c3ncnc4c3nc3n4CCCCC3)C2)c1` (stereo not given), for which the RP-LC retention time was 876 s.

For `Cc1nnc([C@@H]2CC(F)(F)CN2C(=O)COc2ccccc2)o1`, the RP-LC retention time turned out to be 667 s.

`Cc1ccc(Nc2nc(C)cc(N3CCN(C(=O)Nc4ccc5c(c4)OCO5)CC3)n2)cc1` returned an RP-LC retention time of 676 s.

In the case of `Cc1ccc(CN2CCCN(c3ncccc3-c3nc(C(C)C)no3)CC2)cc1`, the RP-LC retention time is 746 s.

Regarding `CCn1ccc2cc(S(=O)(=O)N3CCCN(C(=O)NC4CCCCC4)CC3)ccc21`, the RP-LC retention time was 936 s.

`O=C(NCc1ccccc1)N1CCN(c2ccc(-c3cccs3)nn2)CC1` displayed an RP-LC retention time of 639 s.

`Cc1cc(NC(=O)CSc2nnc(CNC(=O)c3c(F)cccc3Cl)o2)no1`: the RP-LC retention time stood at 657 s.

In turn, `CCc1nnc2nc(N3CCN(C(=O)C(C)Oc4ccccc4)CC3)cc(C)n12` (stereo not given) had an RP-LC retention time of 622 s.

Regarding `N#Cc1cnc2ccccc2c1N1CCC(C(=O)N2CCSCC2)CC1`, the RP-LC retention time is 658 s.

`CC(C)CCNC(=O)c1nc(Nc2ccc(F)cc2)c2ccccc2n1` registered an RP-LC retention time of 851 s.

The compound `CCN1c2cc(C(=O)Nc3ccc4c(c3)OCCO4)ccc2C(=O)N2CCCCC21` (stereo not given) displayed an RP-LC retention time of 821 s.

The compound `CCCn1c(CCc2ccccc2NS(=O)(=O)c2cnn(CC)c2)nc2ccccc21` came in with an RP-LC retention time of 680 s.

Consider `Cc1ccc(N2CC(c3noc(-c4ccc(F)cc4)n3)CC2=O)cc1` (stereo not given), for which the RP-LC retention time was 1010 s.

Turning to `Fc1cccc(Nc2ncnc3c2cnn3-c2ccccc2)c1`, the RP-LC retention time came to 1020 s.

Compound `CCOC(=O)c1nnn(C(CC)C(=O)Nc2ccc(OC)cc2)c1C(=O)OCC` (stereo not given) came in with an RP-LC retention time of 814 s.

For the compound `Cc1ccsc1C(=O)N1CCC(C2CCN(S(C)(=O)=O)CC2)C1` (stereo not given), the RP-LC retention time worked out at 626 s.

Take `COc1cccc(N2CC(C(=O)Nc3nnc4n3CCS4)CC2=O)c1` (stereo not given): the RP-LC retention time is 586 s.

`Cc1ccc(C(=O)CC2(O)C(=O)Nc3ccccc32)cc1C` (stereo not given): the RP-LC retention time amounted to 751 s.

`COc1ccc(Nc2c(-c3ccc(C)cc3)nc3cnccn23)cc1` displayed an RP-LC retention time of 855 s.

In turn, `Cc1ccc(-c2nnc(C)c(NCc3ccc4c(c3)OCO4)n2)cc1` displayed an RP-LC retention time of 730 s.

`CCn1c(=O)c(N2CCC(NC(=O)NCCc3ccccc3)CC2)nc2cccnc21` yielded an RP-LC retention time of 824 s.
